Test results: publication PMC5650337, “A peptidomimetic with a chiral switch is an inhibitor of epidermal growth factor receptor heterodimerization” (Oncotarget, 2017)
Like-named read-outs stand apart in the source and are kept apart here. Where a SMILES comes first, the peptide text is derived from it.

Experiments:
[1] = test system: phosphorylated HER2 in BT-474 cells; experiment: Western blot of phosphorylated HER2; format: cell-based; settings: 0.5 and 1 µM
Experimental: (§1) BT-474, Calu-3, and SKOV-3 cells were treated with compounds at 1 µM and lapatinib (positive control) at 0.07 µM. Cells without any treatment and cells treated with control compound were employed as negative controls in these studies. Cells were incubated for 36 h, washed and trypsinized. The cell lysate was prepared using cell lysis buffer containing protease inhibitor and phosphatase inhibitor. The protein concentration in each sample was determined using Bradford’s assay. 40 μg of protein from each sample was loaded on Novex® 4–20% tris-glycine gels and western blot analysis was carried out as described in our previous publication. Antibodies for the detection of total HER2 protein (t-HER2) and phosphorylated HER2 protein (p-HER2) were used at 1:3000 dilutions. After addition of the substrate and enhancer solutions from a Super Signal-enhanced chemiluminescence kit (Pierce, Rockford, IL) to the membrane, the images were captured using C-Digit Blot Scanner (LI-COR Biotechnology, Lincoln, NE). A representative Western blot image was used for the final presentation.

[2] = test system: phosphorylated HER2 in Calu-3 cells; experiment: Western blot of phosphorylated HER2; format: cell-based
Experimental: as §1

[3] = target: T1, HER2:HER3 dimerization in transfected U2OS cells (Homo sapiens, UniProt P04626); experiment: Enzyme fragment complementation (PathHunter) assay; format: cell-based; settings: in the presence of 0.3 µM NRG1
T1 construct: host or cells: U2OS
Experimental: A Pathhunter assay kit was obtained from DiscoverX, and enzyme fragment complementation assay was carried out. U2OS cells transfected with HER3:HER2 were used for the assay. After cells were attached to the wells, they were incubated with compound 18 and controls at different concentration in the presence of neuregulin-1 (NRG-1) at 0.3 µM concentration. After 24 h of incubation, reagents were added, and luminescence was measured and compared with a control without any compound. A plot of luminescence versus concentration was obtained to measure the dimerization of HER3:HER2 and its inhibition by compound 18.

SKBR-3 cells [4] = experiment: TUNEL assay; format: cell-based; settings: 5 and 10 µM
Experimental: Ten thousand SKBR-3 cells were added to each well of Lab-Tek® 8-chamber slides and incubated overnight for cell attachment. […] Cells were washed twice with cold PBS. Cell fixation was achieved using 10% buffered formalin followed by permeabilization of membranes using 0.2% Triton X-100 in PBS at room temperature. 100 µL of rTdT reaction mix containing biotinylated nucleotide mix was added. The slide was placed in a humidity chamber and incubated for 60 min at 37°C. With the addition of dilute saline-sodium citrate (SSC) solution (20X provided with the kit diluted to 2X), the reaction was stopped. Three PBS washes were made to ensure the removal of remaining unincorporated biotinylated nucleotides on the slide. Treatment with 0.3% hydrogen peroxide was done to block the endogenous peroxidases in the cells. The slide was incubated for 30 min at room temperature with dilute streptavidin HRP solution (1:500 in PBS). Diaminobenzidine (DAB) was added to stain the slide. After drying, DAPI was used to counterstain the nuclei, and images were obtained using a Nikon Eclipse TS100. The number of cells that had undergone apoptosis was counted and quantified.

SKBR-3 cells [5] = test system: SKBR-3 cells
Experimental: Cellular assays were performed using BT-474, SKBR-3, Calu-3, MCF-7, and MCF-10A cells (ATCC). Antiproliferative activity was measured by CellTiter-Glo®, [49] a luminescence-based cell viability assay. In a 96-well plate, 1 × 10^4 cells/well were seeded and incubated overnight at 37°C and 5% CO2. Stock solutions of peptidomimetics were prepared by dissolving 1.5 mg/mL of compounds in DMSO. Stock solution of the compounds were diluted using the serum-free medium to prepare solutions of different concentrations of compounds. Compounds in the medium were added to the wells in triplicate and incubated for 72 h. As controls, cells treated with 1% sodium dodecyl sulfate and 1% dimethyl sulfoxide were used. At the end of the experiment, CellTiter-Glo® reagent was added, and luminescence was measured by a plate reader. A dose response curve was generated using luminescence vs concentration of compounds and IC50 values were obtained using Prism® (GraphPad Software, La Jolla, CA). Experiments were repeated at least three times to obtain standard deviation values.

[6] = test system: NCI-H1975 cells (EGFR L858R/T790M)
Experimental: Antiproliferative activity was measured by CellTiter-Glo®, [49] a luminescence-based cell viability assay. In a 96-well plate, 1 × 10^4 cells/well were seeded and incubated overnight at 37°C and 5% CO2. Stock solutions of peptidomimetics were prepared by dissolving 1.5 mg/mL of compounds in DMSO. Stock solution of the compounds were diluted using the serum-free medium to prepare solutions of different concentrations of compounds. […] As controls, cells treated with 1% sodium dodecyl sulfate and 1% dimethyl sulfoxide were used. At the end of the experiment, CellTiter-Glo® reagent was added, and luminescence was measured by a plate reader. A dose response curve was generated using luminescence vs concentration of compounds and IC50 values were obtained using Prism® (GraphPad Software, La Jolla, CA). Experiments were repeated at least three times to obtain standard deviation values.

T1 sequence (P04626 23-1255): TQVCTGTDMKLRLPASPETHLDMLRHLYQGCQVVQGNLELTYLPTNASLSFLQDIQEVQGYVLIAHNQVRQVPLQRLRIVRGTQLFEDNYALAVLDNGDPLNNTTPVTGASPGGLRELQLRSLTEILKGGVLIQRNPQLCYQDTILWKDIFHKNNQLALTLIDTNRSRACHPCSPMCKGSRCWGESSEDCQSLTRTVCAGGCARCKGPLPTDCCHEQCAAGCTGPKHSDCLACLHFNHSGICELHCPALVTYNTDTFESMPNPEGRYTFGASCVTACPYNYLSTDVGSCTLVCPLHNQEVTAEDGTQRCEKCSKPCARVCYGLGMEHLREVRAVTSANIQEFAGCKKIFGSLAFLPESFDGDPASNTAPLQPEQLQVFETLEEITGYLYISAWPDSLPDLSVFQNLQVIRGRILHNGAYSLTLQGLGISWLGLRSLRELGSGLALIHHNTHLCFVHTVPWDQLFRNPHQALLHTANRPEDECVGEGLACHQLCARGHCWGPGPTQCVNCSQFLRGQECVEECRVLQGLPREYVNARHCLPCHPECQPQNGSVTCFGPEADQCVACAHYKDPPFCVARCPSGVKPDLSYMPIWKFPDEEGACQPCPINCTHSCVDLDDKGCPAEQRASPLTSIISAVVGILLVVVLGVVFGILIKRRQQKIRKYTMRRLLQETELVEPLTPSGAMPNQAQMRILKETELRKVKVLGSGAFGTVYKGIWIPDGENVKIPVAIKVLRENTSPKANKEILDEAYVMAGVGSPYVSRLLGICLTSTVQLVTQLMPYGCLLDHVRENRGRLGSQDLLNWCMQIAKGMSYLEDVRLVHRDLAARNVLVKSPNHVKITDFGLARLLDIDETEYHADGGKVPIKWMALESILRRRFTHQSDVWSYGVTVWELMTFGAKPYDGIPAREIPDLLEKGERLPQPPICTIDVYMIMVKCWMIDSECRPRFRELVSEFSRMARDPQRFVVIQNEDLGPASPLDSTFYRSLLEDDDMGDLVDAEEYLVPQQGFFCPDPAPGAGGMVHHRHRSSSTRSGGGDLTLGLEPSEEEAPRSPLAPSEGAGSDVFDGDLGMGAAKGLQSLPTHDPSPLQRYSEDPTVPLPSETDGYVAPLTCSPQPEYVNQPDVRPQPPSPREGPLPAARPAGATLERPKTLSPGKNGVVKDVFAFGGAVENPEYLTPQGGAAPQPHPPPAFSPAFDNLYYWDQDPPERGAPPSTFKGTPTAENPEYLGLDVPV

With `N=C(N)NCCC[C@@H]1NC(=O)[C@H]2CCCN2C(=O)[C@@H]2CCCN2C(=O)[C@H](CCCNC(=N)N)NC(=O)C[C@H](c2cccc3ccccc23)NC(=O)[C@H](Cc2ccccc2)NC(=O)[C@H](CC(=O)O)NC(=O)[C@H](CC(=O)O)NC(=O)[C@H](Cc2ccccc2)NC(=O)C[C@H](c2cccc3ccccc23)NC1=O` [compound 18, Cyclo(1,10)P^1p^2R^3(R-Anapa)^4F^5D^6D^7F^8(R-Anapa)^9R^10] (HELM PEPTIDE1{P.[dP].R.[O=C(C[C@@H](N[*:1])c1cccc2ccccc12)[*:2]].F.D.D.F.[O=C(C[C@@H](N[*:1])c1cccc2ccccc12)[*:2]].R}$PEPTIDE1,PEPTIDE1,1:R1-10:R2$$$V2.0) the “Phosphorylation of HER2 (Western blot)” value [1] was “decreases the phosphorylation of HER2 in a concentration-dependent manner”, the “Phosphorylation of HER2 (Western blot)” value [2] was “decreases the phosphorylation of HER2 in a concentration-dependent manner” and the “Inhibition of HER2:HER3 dimerization (PathHunter)” value [3] was “dimerization of HER2:HER3 is inhibited in a concentration-dependent manner”. The “Apoptosis (TUNEL staining)” value (SKBR-3 cells [4]) was “positive staining for apoptosis”, the IC50 (SKBR-3 cells [5]; read-out: Antiproliferative activity (IC50 µM) SKBR-3 cells, Table 2, compound 18 and diastereoisomers) was 0.194 ± 0.046 µM and the IC50 (SKBR-3 cells [5]; read-out: IC50 SKBR-3(+), HER2-overexpressing breast cancer cells, 72 h) was 0.194 ± 0.046 µM. The “Synergistic effect with erlotinib (isobologram)” value ([6]; NCI-H1975, compound 18 plus erlotinib) was “synergistic effect” and the IC50 ([6]; read-out: IC50 in NCI-H1975, EGFR L858R/T790M lung cancer cell line) was 4.85 µM.
